Assay results taken from patent US11306078B2, “Piperidine CXCR7 receptor modulators” (IDORSIA PHARMACEUTICALS LTD., priority 2016, dated 2022).

These compounds were tested against human chemokine receptor CXCR7 (Homo sapiens (Human), UniProt P25106) (assay: Tango CXCR7-bla U2OS beta-arrestin recruitment assay (beta-lactamase reporter, FRET), antagonism of CXCL12/SDF1-α). Conditions: antagonistic effect on CXCR7; Tango CXCR7-bla U2OS cells, CXCL12/SDF1-α at its EC80.
Type: cell-based
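Note: compounds preincubated 15 min before CXCL12 addition, then 22 h at 37 °C, FRET emission ratio read with CCF4-AM substrate after 2 h.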

human chemokine receptor CXCR7, sequence (P25106 whole entry): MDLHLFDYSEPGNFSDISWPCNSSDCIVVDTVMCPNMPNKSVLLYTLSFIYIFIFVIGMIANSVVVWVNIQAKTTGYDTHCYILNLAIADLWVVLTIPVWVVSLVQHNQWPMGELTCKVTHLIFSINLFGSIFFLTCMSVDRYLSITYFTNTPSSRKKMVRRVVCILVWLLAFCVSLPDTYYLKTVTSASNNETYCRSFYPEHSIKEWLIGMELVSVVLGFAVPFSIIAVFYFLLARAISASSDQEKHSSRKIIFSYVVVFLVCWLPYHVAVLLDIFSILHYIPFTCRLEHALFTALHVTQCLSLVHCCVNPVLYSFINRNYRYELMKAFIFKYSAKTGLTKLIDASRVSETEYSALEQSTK

Compound	IC50 [nM]
O=C(N[C@H]1CCN(CC2CC2)C[C@@H]1C(=O)NC1(c2ncccn2)CC1)c1cc(-c2ccc(Cl)cc2Cl)on1 (single isomer, unassigned) [Example 1.189a, (3S,4S)-1-Cyclopropylmethyl-4-{[5-(2,4-dichloro-phenyl)-isoxazole-3-carbonyl]-amino}-piperidine-3-carboxylic acid (1-pyrimidin-2-yl-cyclopropyl)-amide or (3R,4R)-1-Cyclopropylmethyl-4-{[5-(2,4-dichloro-phenyl)-isoxazole-3-carbonyl]-amino}-piperidine-3-carboxylic acid (1-pyrimidin-2-yl-cyclopropyl)-amide]	15
O=C(N[C@@H]1CCN(CC2CC2)C[C@H]1C(=O)NC1(c2ncccn2)CC1)c1cc(-c2ccc(C(F)(F)F)cc2)on1 (single isomer, unassigned) [Example 1.192a, (3R*,4R*)-1-Cyclopropylmethyl-4-{[5-(4-trifluoromethyl-phenyl)-isoxazole-3-carbonyl]-amino}-piperidine-3-carboxylic acid (1-pyrimidin-2-yl-cyclopropyl)-amide]	854
O=C(N[C@@H]1CCN(CC2CC2)C[C@H]1C(=O)NC1(c2ncccn2)CC1)c1cc(-c2ccc(C(F)(F)F)cc2)on1 (single isomer, unassigned) [Example 1.192b, (3R*,4R*)-1-Cyclopropylmethyl-4-{[5-(4-trifluoromethyl-phenyl)-isoxazole-3-carbonyl]-amino}-piperidine-3-carboxylic acid (1-pyrimidin-2-yl-cyclopropyl)-amide]	122
O=C(N[C@@H]1CCN(CC2CC2)C[C@H]1C(=O)NC1(c2ncccn2)CC1)c1cc(-c2cccc(C(F)(F)F)c2)on1 (single isomer, unassigned) [Example 1.193a, (3R,4R)-1-Cyclopropylmethyl-4-{[5-(3-trifluoromethyl-phenyl)-isoxazole-3-carbonyl]-amino}-piperidine-3-carboxylic acid (1-pyrimidin-2-yl-cyclopropyl)-amide or (3S,4S)-1-cyclopropylmethyl-4-{[5-(3-trifluoromethyl-phenyl)-isoxazole-3-carbonyl]-amino}-piperidine-3-carboxylic acid (1-pyrimidin-2-yl-cyclopropyl)-amide]	97
O=C(N[C@@H]1CCN(CC2CC2)C[C@H]1C(=O)NC1(c2ncccn2)CC1)c1cc(-c2ccc(F)c(F)c2F)on1 (single isomer, unassigned) [Example 1.194a, (3R,4R)-1-Cyclopropylmethyl-4-{[5-(2,3,4-trifluoro-phenyl)-isoxazole-3-carbonyl]-amino}-piperidine-3-carboxylic acid (1-pyrimidin-2-yl-cyclopropyl)-amide or (3S,4S)-1-cyclopropylmethyl-4-{[5-(2,3,4-trifluoro-phenyl)-isoxazole-3-carbonyl]-amino}-piperidine-3-carboxylic acid (1-pyrimidin-2-yl-cyclopropyl)-amide]	13
CN(C)C(=O)[C@@H]1CN(C2CCCCC2)CC[C@H]1NC(=O)c1nnc(-c2ccc(F)cc2F)o1 (single isomer, unassigned) [Example 3.003a, (3R*,4R*)-1-Cyclohexyl-4-{[5-(2,4-difluoro-phenyl)-[1,3,4]oxadiazole-2-carbonyl]-amino}-piperidine-3-carboxylic acid dimethylamide]	771
CN(C)C(=O)[C@@H]1CN(C2CCCCC2)CC[C@H]1NC(=O)c1nnc(-c2ccc(F)cc2F)o1 (single isomer, unassigned) [Example 3.003b, (3R*,4R*)-1-Cyclohexyl-4-{[5-(2,4-difluoro-phenyl)-[1,3,4]oxadiazole-2-carbonyl]-amino}-piperidine-3-carboxylic acid dimethylamide]	54
O=C(N[C@H]1CCN(CC2CC2)C[C@@H]1C(=O)NC1(c2ccccn2)CC1)c1nnc(-c2ccc(F)cc2F)o1 (single isomer, unassigned) [Example 3.016a, (3S,4S)-1-Cyclopropylmethyl-4-{[5-(2,4-difluoro-phenyl)-[1,3,4]oxadiazole-2-carbonyl]-amino}-piperidine-3-carboxylic acid (1-pyridin-2-yl-cyclopropyl)-amide or (3R,4R)-1-Cyclopropylmethyl-4-{[5-(2,4-difluoro-phenyl)-[1,3,4]oxadiazole-2-carbonyl]-amino}-piperidine-3-carboxylic acid (1-pyridin-2-yl-cyclopropyl)-amide]	90
O=C(N[C@@H]1CCN(CC2CC2)C[C@H]1C(=O)NC1(c2ncccn2)CC1)c1cc(-c2c(F)cc(F)cc2F)on1 (single isomer, unassigned) [Example 3.020a, (3R*,4R*)-1-Cyclopropylmethyl-4-{[5-(2,4,6-trifluoro-phenyl)-isoxazole-3-carbonyl]-amino}-piperidine-3-carboxylic acid (1-pyrimidin-2-yl-cyclopropyl)-amide]	271
O=C(N[C@@H]1CCN(CC2CC2)C[C@H]1C(=O)NC1(c2ncccn2)CC1)c1noc(-c2ccc(F)cc2F)c1F (single isomer, unassigned) [Example 3.022a, (3R,4R)-1-Cyclopropylmethyl-4-{[5-(2,4-difluoro-phenyl)-4-fluoro-isoxazole-3-carbonyl]-amino}-piperidine-3-carboxylic acid (1-pyrimidin-2-yl-cyclopropyl)-amide or (3S,4S)-1-cyclopropylmethyl-4-{[5-(2,4-difluoro-phenyl)-4-fluoro-isoxazole-3-carbonyl]-amino}-piperidine-3-carboxylic acid (1-pyrimidin-2-yl-cyclopropyl)-amide]	25
COc1ccccc1C(C)NC(=O)[C@H]1CN(CC2CC2)CC[C@@H]1NC(=O)c1cc(-c2ccc(F)cc2F)on1 (single isomer, unassigned) [Example 4.072a]	8
O=C(N[C@@H]1CCN(CC2CC2)C[C@H]1C(=O)NC1(c2ncccn2)CC1)c1cc(-c2c(F)cc(F)cc2F)on1 (single isomer, unassigned) [Example 30.20b, (3R*,4R*)-1-Cyclopropylmethyl-4-{[5-(2,4,6-trifluoro-phenyl)-isoxazole-3-carbonyl]-amino}-piperidine-3-carboxylic acid (1-pyrimidin-2-yl-cyclopropyl)-amide]	4
COC(=O)C1CN(C2CCCCC2)CCC1NC(=O)c1noc(-c2ccc(F)c(F)c2)n1 (stereo not drawn) [BB 1.18c]	119
CN(C)C(=O)[C@@H]1CN(CC2CC2)CC[C@H]1NC(=O)c1cc(-c2c(F)cc(F)cc2F)on1 [Example 1.1]	128
Cc1cnc(CNC(=O)[C@@H]2CN(C3CCCCC3)CC[C@H]2NC(=O)c2cc(-c3ccc(F)cc3F)on2)s1 [Example 1.02]	198
O=C(N[C@@H]1CCN(C2CCCCC2)C[C@H]1C(=O)NCc1ccncc1)c1cc(-c2ccc(F)cc2F)on1 [Example 1.05]	223
CC(CNC(=O)[C@@H]1CN(C2CCCCC2)CC[C@H]1NC(=O)c1cc(-c2ccc(F)cc2F)on1)c1ccccc1 (stereo partly drawn) [Example 1.06]	727
O=C(N[C@@H]1CCN(C2CCCCC2)C[C@H]1C(=O)N1CCC(c2ccccc2)C1)c1cc(-c2ccc(F)cc2F)on1 (stereo partly drawn) [Example 1.07]	559
CC(C)(CC(F)(F)F)NC(=O)[C@@H]1CN(C2CCCCC2)CC[C@H]1NC(=O)c1cc(-c2ccc(F)cc2F)on1 [Example 1.08]	564
C[C@@H](NC(=O)[C@@H]1CN(C2CCCCC2)CC[C@H]1NC(=O)c1cc(-c2ccc(F)cc2F)on1)c1cnccn1 [Example 1.09]	35
COCC(C)(C)NC(=O)[C@@H]1CN(CC2CC2)CC[C@H]1NC(=O)c1cn(-c2ccc(F)cc2F)nn1 [Example 1.11]	535
C[C@@H]1CCC[C@H]1N1CC[C@@H](NC(=O)c2cn(-c3ccc(F)cc3F)nn2)[C@H](C(=O)N[C@H](C)c2ccccn2)C1 [Example 1.12]	789
C[C@@H](NC(=O)[C@@H]1CN(C2CCCC2)CC[C@H]1NC(=O)c1cc(-c2c(F)cc(F)cc2F)on1)c1cnccn1 [Example 1.13]	140
C[C@@H](NC(=O)[C@@H]1CN(C2CCCCC2)CC[C@H]1NC(=O)c1cc(-c2ccc(F)cc2F)no1)C1CCC1 [Example 1.14]	358
C[C@@H]1CCC[C@H]1N1CC[C@@H](NC(=O)c2cc(-c3ccc(F)cc3F)no2)[C@H](C(=O)N(C)C)C1 [Example 1.15]	155
C[C@@H](NC(=O)[C@@H]1CN(C2CCCCC2)CC[C@H]1NC(=O)c1noc(-c2ccc(F)cc2F)n1)c1cnccn1 [Example 1.16]	526
O=C(N[C@@H]1CCN(C2CCCC2)C[C@H]1C(=O)NC1(c2ccccn2)CC1)c1cc(-c2c(F)cc(F)cc2F)on1 [Example 1.17]	16
O=C(N[C@@H]1CCN(CC2CC2)C[C@H]1C(=O)NC1(c2ncccn2)CC1)c1cc(-c2ccccc2C(F)(F)F)on1 [Example 1.19]	294

Same assay, conditions: antagonistic effect on CXCR7; Tango CXCR7-bla U2OS cells; CXCL12/SDF1-α at its EC80; geometric mean

Compound	IC50 [nM]
O=C(N[C@@H]1CCN(CC2CC2)C[C@H]1C(=O)NC1(c2ncccn2)CC1)c1cc(C2CC2)on1 (single isomer, unassigned) [Reference Compound 1a, (3R,4R)-4-[(5-Cyclopropyl-isoxazole-3-carbonyl)-amino]-1-cyclopropylmethyl-piperidine-3-carboxylic acid (1-pyrimidin-2-yl-cyclopropyl)-amide or (3S,4S)-4-[(5-cyclopropyl-isoxazole-3-carbonyl)-amino]-1-cyclopropylmethyl-piperidine-3-carboxylic Acid (1-pyrimidin-2-yl-cyclopropyl)-amide, reference compound]	> 10000
O=C(N[C@@H]1CCN(CC2CC2)C[C@H]1C(=O)NC1(c2ncccn2)CC1)c1cc(C2CC2)on1 (single isomer, unassigned) [Reference Compound 1b, (3R,4R)-4-[(5-Cyclopropyl-isoxazole-3-carbonyl)-amino]-1-cyclopropylmethyl-piperidine-3-carboxylic acid (1-pyrimidin-2-yl-cyclopropyl)-amide or (3S,4S)-4-[(5-cyclopropyl-isoxazole-3-carbonyl)-amino]-1-cyclopropylmethyl-piperidine-3-carboxylic Acid (1-pyrimidin-2-yl-cyclopropyl)-amide, reference compound]	> 10000
